According to patent US12534469B2 (CHILDREN'S HOSPITAL MEDICAL CENTER, priority 2020, dated 2026):
pIC50: −log10 of the molar value.

Experiments:
Format in all cases: biochemical
IRAK1 = target: T1, IRAK1 (Homo sapiens, UniProt P51617); test: RBC HotSpot Kinase Assay, IRAK1
T1 construct: purchased Reaction Biology (RBC HotSpot Kinase Assay)
Source text: (§1) This assay uses the isolated kinase enzyme. This assay is very useful for determining competition of the inhibitor for ATP and/or substrates and for measuring the kinetics of enzyme inhibition. […] Unlike kinase binding assays that measure competition for ATP, the HotSpot Kinase Assay is a functional assay that measures catalytic activity; as such it measures relative functional potency regardless of the mechanism of enzyme inhibition. This assay uses the form of the various enzymes that are easiest to express, which may not necessarily be the form of the enzyme that exist in the cell. (Sometimes the carboxy terminus has been truncated to aid in expression, or, if it is a receptor kinase, the enzyme itself is isolated from the other parts of the receptor that are involved in regulating kinase activity.)
(§2) The reagent used was as follows: Base Reaction buffer; 20 mM Hepes (pH 7.5), 10 mM MgCl2, 1 mM EGTA, 0.01% Brij35, 0.02 mg/ml BSA, 0.1 mM Na3VO4, 2 mM DTT, 1% DMSO. Required cofactors were added individually to each kinase reaction.
(§3) The reaction procedure was as follows: • 1) Substrates were prepared in freshly prepared Reaction Buffer. • 2) Any required cofactors were delivered to the substrate solution above. • 3) Kinase was delivered into the substrate solution and gently mixed. • 4) Compounds were delivered in 100% DMSO into the kinase reaction mixture by Acoustic technology (Echo550; nanoliter range), followed by incubation for 20 min at room temp. • 5) ^33P-ATP was delivered into the reaction mixture to initiate the reaction. • 6) The mixture was incubated for 2 hours at room temperature. • 7) Kinase activity was detected by P81 filter-binding method.

FLT3 = target: T2, FLT3 (Homo sapiens, UniProt P36888); test: RBC HotSpot Kinase Assay, FLT3
T2 construct: purchased Reaction Biology (RBC HotSpot Kinase Assay)
T2 sequence (P36888 564-958 limits assumed): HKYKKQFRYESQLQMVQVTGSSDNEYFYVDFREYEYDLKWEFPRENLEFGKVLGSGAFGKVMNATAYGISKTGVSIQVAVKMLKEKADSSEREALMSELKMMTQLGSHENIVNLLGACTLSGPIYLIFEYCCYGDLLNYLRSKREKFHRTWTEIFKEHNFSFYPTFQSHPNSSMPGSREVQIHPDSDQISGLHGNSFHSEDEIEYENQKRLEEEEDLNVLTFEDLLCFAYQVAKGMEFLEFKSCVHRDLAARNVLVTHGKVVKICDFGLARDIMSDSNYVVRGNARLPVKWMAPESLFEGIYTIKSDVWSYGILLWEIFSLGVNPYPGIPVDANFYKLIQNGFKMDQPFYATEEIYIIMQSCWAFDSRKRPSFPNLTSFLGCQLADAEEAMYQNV
Source text: as §1, §2, §3

IRAK4 = target: T3, IRAK4 (Homo sapiens, UniProt Q9NWZ3); test: RBC HotSpot Kinase Assay, IRAK4; design: purchased Reaction Biology (RBC HotSpot Kinase Assay)
T3 sequence (Q9NWZ3 1-460): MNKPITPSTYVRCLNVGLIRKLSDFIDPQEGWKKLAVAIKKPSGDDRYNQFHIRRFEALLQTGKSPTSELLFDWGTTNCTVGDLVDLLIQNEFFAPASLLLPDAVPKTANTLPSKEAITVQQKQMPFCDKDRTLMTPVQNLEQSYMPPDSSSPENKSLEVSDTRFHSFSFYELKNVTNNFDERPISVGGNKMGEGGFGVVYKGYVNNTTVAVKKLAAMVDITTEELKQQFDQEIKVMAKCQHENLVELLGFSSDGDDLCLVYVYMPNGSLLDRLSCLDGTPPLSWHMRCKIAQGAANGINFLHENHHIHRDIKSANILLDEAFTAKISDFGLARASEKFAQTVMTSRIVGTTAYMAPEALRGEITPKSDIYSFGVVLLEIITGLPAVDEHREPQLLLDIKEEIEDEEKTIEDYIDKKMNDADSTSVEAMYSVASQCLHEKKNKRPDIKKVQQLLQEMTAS
Source text: as §1, §2, §3

T1 sequence (P51617 whole entry): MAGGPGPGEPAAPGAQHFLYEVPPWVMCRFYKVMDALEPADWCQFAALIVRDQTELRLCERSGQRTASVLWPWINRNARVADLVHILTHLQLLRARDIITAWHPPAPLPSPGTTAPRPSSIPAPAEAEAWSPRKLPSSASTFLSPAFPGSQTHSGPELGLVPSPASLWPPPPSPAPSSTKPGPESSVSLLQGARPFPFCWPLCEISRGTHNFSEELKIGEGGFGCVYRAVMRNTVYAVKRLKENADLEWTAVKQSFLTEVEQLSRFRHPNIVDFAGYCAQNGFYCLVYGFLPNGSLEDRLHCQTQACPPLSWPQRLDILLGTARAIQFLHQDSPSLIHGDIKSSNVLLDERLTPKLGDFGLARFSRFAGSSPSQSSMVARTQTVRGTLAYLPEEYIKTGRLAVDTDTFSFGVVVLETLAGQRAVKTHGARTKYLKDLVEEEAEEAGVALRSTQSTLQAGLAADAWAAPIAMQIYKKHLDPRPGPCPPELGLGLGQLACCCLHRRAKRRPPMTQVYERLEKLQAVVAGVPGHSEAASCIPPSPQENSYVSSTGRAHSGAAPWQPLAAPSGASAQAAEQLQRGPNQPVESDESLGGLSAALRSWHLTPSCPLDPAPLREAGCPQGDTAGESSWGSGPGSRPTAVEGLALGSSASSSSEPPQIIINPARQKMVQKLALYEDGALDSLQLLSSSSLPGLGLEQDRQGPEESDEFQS

| Compound | pIC50 (IRAK1) | pIC50 (FLT3) | pIC50 (IRAK4) |
| --- | --- | --- | --- |
| COc1cc2ncc(-c3cccc(N[C@H]4CNC[C@@H]4C)n3)n2nc1C1CC1 [Compound 98, 6-(6-cyclopropyl-7-methoxyimidazo[1,2-b]pyridazin-3-yl)-N-((3R,4S)-4-methylpyrrolidin-3-yl)pyridin-2-amine] | 6.43 | > 9.30 | 8.70 |
| Cn1cc(-c2ccc3ncc(-c4cccc(NC5CCC6(CNC6)C5)n4)n3n2)cn1 (stereo not drawn) [Compound 49, N-(6-(6-(1-methyl-1H-pyrazol-4-yl)imidazo[1,2-b]pyridazin-3-yl)pyridin-2-yl)-2-azaspiro[3.4]octan-6-amine] | 5.92 | 8.70 | 6.69 |
| FC1(F)CNCC1Nc1cccc(-c2cnc3ccc(-c4cnn5ccccc45)nn23)n1 (stereo not drawn) [Compound 56, N-(4,4-difluoropyrrolidin-3-yl)-6-(6-(pyrazolo[1,5-a]pyridin-3-yl)imidazo[1,2-b]pyridazin-3-yl)pyridin-2-amine] | 7.10 | 9.10 | 9.00 |
| CN(C)c1ccc2ncc(-c3cccc(N[C@H]4CNC[C@@H]4F)n3)n2n1 [Compound 90, 3-(6-(((3S,4S)-4-fluoropyrrolidin-3-yl)amino)pyridin-2-yl)-N,N-dimethylimidazo[1,2-b]pyridazin-6-amine] | 5.20 | 8.40 | 7.21 |
| CC1(C)Cc2c(-c3ccc4ncc(-c5cccc(NC6CNCC6(F)F)n5)n4n3)cnn2C1 (stereo not drawn) [Compound 60, N-(4,4-difluoropyrrolidin-3-yl)-6-(6-(5,5-dimethyl-5,6-dihydro-4H-pyrrolo[1,2-b]pyrazol-3-yl)imidazo[1,2-b]pyridazin-3-yl)pyridin-2-amine] | 6.56 | 8.70 | 8.40 |
| c1cc(NC2CC3(CCNC3)C2)nc(-c2cnc3ccc(-c4cnn(C5CCOCC5)c4)nn23)c1 (stereo not drawn) [Compound 41, N-(6-(6-(1-(tetrahydro-2H-pyran-4-yl)-1H-pyrazol-4-yl)imidazo[1,2-b]pyridazin-3-yl)pyridin-2-yl)-6-azaspiro[3.4]octan-2-amine] | < 5.00 | 7.74 | 5.46 |
| FC(F)n1cc(-c2ccc3ncc(-c4cccc(N[C@H]5CNC[C@@H]5C(F)(F)F)n4)n3n2)cn1 [Compound 12, 6-(6-(1-(difluoromethyl)-1 H-pyrazol-4-yl)imidazo[1,2-b]pyridazin-3-yl)-N-((3R,4S)-4-(trifluoromethyl)pyrrolidin-3-yl)pyridin-2-amine] | 5.69 | 8.52 | 6.89 |
| F[C@H]1CNC[C@@H]1Nc1cccc(-c2cnc3ccc(NC4CCCCC4)nn23)n1 [Compound 92, N-cyclohexyl-3-(6-(((3S,4S)-4-fluoropyrrolidin-3-yl)amino)pyridin-2-yl)imidazo[1,2-b]pyridazin-6-amine] | 5.79 | 7.11 | 5.97 |
| O[C@H]1CNC[C@@H]1Nc1cccc(-c2cnc3ccc(C4CC4)nn23)n1 [Compound 70, (3S,4S)-4-((6-(6-cyclopropylimidazo[1,2-b]pyridazin-3-yl)pyridin-2-yl)amino)pyrrolidin-3-ol] | 5.28 | 7.74 | 6.23 |
| F[C@@H]1CNCC[C@H]1Nc1cccc(-c2cnc3ccc(C4CC4)nn23)n1 [Compound 73, 6-(6-cyclopropylimidazo[1,2-b]pyridazin-3-yl)-N-((3R,4R)-3-fluoropiperidin-4-yl)pyridin-2-amine] | 5.74 | 8.00 | 6.53 |
| COc1cc2ncc(-c3cccc(N[C@H]4CNC[C@@H]4F)n3)n2nc1-c1cn[nH]c1 [Compound 119] | 7.12 | > 9.30 | > 9.30 |
| Cn1cc(-c2ccc3ncc(-c4cccc(NC5CC6(CCNC6)C5)n4)n3n2)cn1 (stereo not drawn) [Compound 42, N-(6-(6-(1-methyl-1H-pyrazol-4-yl)imidazo[1,2-b]pyridazin-3-yl)pyridin-2-yl)-6-azaspiro[3.4]octan-2-amine] | 5.65 | 8.52 | 6.95 |
| c1cc(NC2CC3(CNC3)C2)nc(-c2cnc3ccc(-c4cnn(C5CCOCC5)c4)nn23)c1 [Compound 34, N-(6-(6-(1-(tetrahydro-2H-pyran-4-yl)-1H-pyrazol-4-yl)imidazo[1,2-b]pyridazin-3-yl)pyridin-2-yl)-2-azaspiro[3.3]heptan-6-amine] | < 5.00 | 7.80 | 5.29 |
| c1cc(N[C@@H]2CCCNC2)nc(-c2cnc3ccc(C4CC4)nn23)c1 [Compound 76, (R)-6-(6-cyclopropylimidazo[1,2-b]pyridazin-3-yl)-N-(piperidin-3-yl)pyridin-2-amine] | 5.50 | 9.22 | 6.46 |
| FC(F)n1cc(-c2ccc3ncc(-c4cccc(N[C@H]5CNC[C@@H]5F)n4)n3n2)cn1 [Compound 2, 6-(6-(1-(difluoromethyl)-1 H-pyrazol-4-yl)imidazo[1,2-b]pyridazin-3-yl)-N-((3S,4S)-4-fluoropyrrolidin-3-yl)pyridin-2-amine] | 6.02 | 8.70 | 6.94 |

Continued by rising pIC50 (IRAK1), values first:

| pIC50 (IRAK1) | pIC50 (FLT3) | pIC50 (IRAK4) | Compound |
| --- | --- | --- | --- |
| 5.09 | 8.30 | 7.24 | CNc1ccc2ncc(-c3cccc(N[C@H]4CNC[C@@H]4F)n3)n2n1 [Compound 89, 3-(6-(((3S,4S)-4-fluoropyrrolidin-3-yl)amino)pyridin-2-yl)-N-methylimidazo[1,2-b]pyridazin-6-amine] |
| 5.61 | 8.40 | 5.85 | CC(C)(O)Cn1cc(-c2ccc3ncc(-c4cccc(N[C@@H]5CCCNC5)n4)n3n2)cn1 [Compound 18, (R)-2-methyl-1-(4-(3-(6-(piperidin-3-ylamino)pyridin-2-yl)imidazo[1,2-b]pyridazin-6-yl)-1 H-pyrazol-1-yl)propan-2-ol] |
| 5.66 | 8.22 | 6.01 | CC(C)n1cc(-c2ccc3ncc(-c4cccc(NC5CCC6(CNC6)C5)n4)n3n2)cn1 (stereo not drawn) [Compound 46, N-(6-(6-(1-isopropyl-1H-pyrazol-4-yl)imidazo[1,2-b]pyridazin-3-yl)pyridin-2-yl)-2-azaspiro[3.4]octan-6-amine] |
| 5.79 | 8.30 | 6.22 | CC(C)n1cc(-c2ccc3ncc(-c4cccc(NC5CCNC5)n4)n3n2)cn1 (stereo not drawn) [Compound 27, 6-(6-(1-isopropyl-1H-pyrazol-4-yl)imidazo[1,2-b]pyridazin-3-yl)-N-(pyrrolidin-3-yl)pyridin-2-amine] |
| 6.30 | 8.22 | 7.42 | Cn1cc(-c2ccc3ncc(-c4cccc(NC5CNCC5(F)F)n4)n3n2)cn1 (stereo not drawn) [Compound 21, N-(4,4-difluoropyrrolidin-3-yl)-6-(6-(1-methyl-1H-pyrazol-4-yl)imidazo[1,2-b]pyridazin-3-yl)pyridin-2-amine] |
| 6.57 | > 9.30 | 7.55 | c1cc(NC2CCC3(CNC3)C2)nc(-c2cnc3ccc(-c4cnn5ccccc45)nn23)c1 (stereo not drawn) [Compound 63, N-(6-(6-(pyrazolo[1,5-a]pyridin-3-yl)imidazo[1,2-b]pyridazin-3-yl)pyridin-2-yl)-2-azaspiro[3.4]octan-6-amine] |
| 6.58 | 8.30 | 7.29 | Cn1cc(-c2ccc3ncc(-c4cccc(N[C@H]5CCNC[C@@H]5F)n4)n3n2)cn1 [Compound 5, N-((3S,4S)-3-fluoropiperidin-4-yl)-6-(6-(1-methyl-1H-pyrazol-4-yl)imidazo[1,2-b]pyridazin-3-yl)pyridin-2-amine] |
| 6.65 | > 9.30 | 7.89 | Cn1cc(-c2ccc3ncc(-c4cccc(N[C@@H]5CCCNC5)n4)n3n2)cn1 [Compound 15, (R)-6-(6-(1-methyl-1H-pyrazol-4-yl)imidazo[1,2-b]pyridazin-3-yl)-N-(piperidin-3-yl)pyridin-2-amine] |
